Test results as given in patent US9303006B2, “Line leaf inula flower lactone A and methods for preparing and using the same for treating myocarditis” (SHANXI ZHENDONG PILOT BIOLOGICAL SCIENCE AND TECHNOLOGY …, priority 2012, dated 2016).
“And” between values parts separate entries of the source, which are not always exact repeats. Identical values can stand only once. “Also recorded” adds a separate entry of the source.

Assays:
TNF-α = assay: Serum TNF-α in the mouse EAM model; assay type: in vivo, mice
Protocol: (§1) Pig myocardial myosin (PCM, 1 mg/ml; Sigma, St. Louis, Mo.) (Sigma), and equal volume of Freund's Complete Adjuvant (FCA, Sigma St. Louis, Mo.), were in an uniform emulsification and mixed into a homogeneous emulsion, where the mycobacterium tuberculosis H37Ra bead (Difco, Detroit, Mich.) with final concentration at 5 mg/ml. In the 0th day, the emulsion 0.2 ml (including antigen 200 μg) was taken and subcutaneously administered at the bilateral inguinal and multiple points under the armpit in mice. Seven days after the first immunization, the same procedure was performed to strengthen the immune once. The animals were divided into groups, each group had six mice.
(§2) Beginning on the day of immunity, the mice were given line leaf inula flower lactone A continuously for 21 days. Two dosing methods were applied:
(§3) (1) intraperitoneal injection: Line leaf inula flower lactone A of Example 1 was dissolved in phosphate buffer solution (PBS) (containing 5% DMSO (dimethyl sulfoxide)). The 4 concentration gradients were at 2.5 mg/kg/d^−1 (2.5 mg/kg every time, once a day); 5 mg/kg/d^−1; 10 mg/kg/d^−1; and 20 mg/kg/d^−1.
(§4) Mice after 21 days were killed by taking off the neck, shearing heart, weighing and take photos, pathological section (HE hematoxylin-eosin staining), cytokine TNF-α change.
(3) TNF-α change. TNF-α was an inflammation factor that played an important role in the onset of the EAM. […]

[1] = tested on: coxsackie B group virus B3 type Nancy strains (CVB3); assay: Serum neutralizing antibody in CVB3-infected mice; assay type: in vivo, Balb/c male mice; details: oral treatment; concentration-response relationship by 7 days
Protocol: (§5) The thin Leaf inula flower lactone A compound from Example 1 was used; a viral strain: coxsackie B group virus B3 type Nancy strains (CVB3) was used at a virus infection dose of 10LD50 virus 0.2 ml through abdominal cavity infection in mice. The animals used were Balb/c male mice, 13 g to 15 g, from Shanghai West S&P-Bick Experimental Animals Co., Ltd. with animal number: qualified SCXX (Shanghai), 2008-0016. The positive control medicine was human recombinant interferon alpha 2 a, YinTeFen, Shenyang Junior Pharmaceutical co., Ltd., Product batch number 20090708.
(§6) Preparation and administration: the line leaf inula flower lactone A compound was weighed, ground, and suspended in 0.5% CMC (carboxymethyl cellulose) mixture at 10 mg/ml solution. Oral administration of the medicine was conducted for once per day, every time at 0.5 ml, for 7 days.
(§7) The experimental groups included (1) the viral infection group, each group had 10 mice, were given 0.5% CMC solution and virus.
Another group of 10 mice, with infection, was weighed after 7 days. Four mice were taken to detect cardiac function, and killed and dissected for collecting blood to test neutralizing antibody, heart weighing calculation index, and grinding the heart, with three resistance MEM fluid containing 10%. […]

[2] = tested on: coxsackie B group virus B3 type Nancy strains (CVB3); assay: CVB3-infected mice myocardial virus measured on cell model at 7th day (heart homogenate 1:10, cell lesions); assay type: in vivo, Balb/c male mice; details: for 1:10 (cell lesions from myocardial homogenate) / Lesions rate % / Average disease rate % / Reduce lesions: 7th day; for 1:10 (cell lesions from myocardial homogenate) / Lesions rate %: individual mice NO 1-5, listed as leaves Inula flowers lactone A; for Average disease rate %: virus control 90%; for Reduce lesions: vs virus control
Protocol: as §5, §6, §7
(§8) Another group of 10 mice, with infection, was weighed after 7 days. Four mice were taken to detect cardiac function, and killed and dissected for collecting blood to test neutralizing antibody, heart weighing calculation index, and grinding the heart, with three resistance MEM fluid containing 10%. 1:10 dilution, on the cell model to detect coxsackie virus in mice drop degree (to observe the myocardial cell lesions) separation of virus infection.

[3] = tested on: coxsackie B group virus B3 type Nancy strains (CVB3); assay: Life protection (survival time) of mice infected by CVB3; assay type: in vivo, Balb/c male mice; details: for Survival time M: CVB3-infected mice, observed 14 days; for prolonged survival time, extended percentage: vs virus control
Protocol: as §5, §6, §7
Test process was that after virus infection in mice (except the normal control group) for 2 hours, total drug delivery was performed 7 days in a row, observation was conducted until 14 days. The incidence and deaths were recorded every day, and the average survival days prolongation of life were calculated with p value calculation.

mouse EAM model = assay: Mouse experimental autoimmune myocarditis (EAM) model: HW/BW, cardiac morphology, HE pathology; assay type: in vivo, mice
Protocol: as §1, §2, §3
(2) Intragastric Administration: Line leaf inula flower lactone A suspended in 0.5% CMC-Na (carboxymethyl cellulose sodium). The 3 concentration gradients were at: 10 mg/kg/d^−1; 50 mg/kg/d^−1; and 100 mg/kg/d^−1.
as §4
(1) heart and body weight ratio (HW/BW). Myocarditis in mice after the onset of the myocarditis should have the heart weight/body weight ratio larger than the model group, if the medication was effective, the ratio should be small and close to the normal group.
(2) Cardiac morphology. After the onset of the EAM in mice, the heart appeared swelling and pale as the result of the infiltration by inflammatory cells. Intraperitoneal injection of the line leaf inula flower lactone A (XX-3) were given at various dosages.
(4) pathology (conventional HE staining). Mice were killed by taking off the neck, heart was taken out, and residual blood was removed. Each heart was fixed in 10% formaldehyde, paraffin embedded, continuous sliced with conventional HE staining and observed under the microscope. The model group had visible focal myocardial cell degeneration necrosis, cytoplasm red dye, nuclear disappeared, with some muscle dissolved, interstitial broadening, and various inflammatory cell infiltration.

CVB3-Infected Mice = assay: Live body weight in CVB3-infected mice; assay type: in vivo, Balb/c male mice
Protocol: as §5, §6, §7, §8

C=C1C(=O)O[C@H]2C[C@@H](C)[C@@H]3[C@@H](OC(C)=O)C[C@H](O)[C@@]3(C)[C@@H](OC(C)=O)[C@H]12 [line leaf inula flower lactone A]
levels of serum TNF-α vs model group (TNF-α; intraperitoneal injection 20 mg/kg, 21 days, #P<0.05): the difference was significant | levels of serum TNF-α vs model group (TNF-α; intraperitoneal injection, 21 days after first immunization, FIG. 4): decreased | effect on neutralizing antibodies in the CVB3-infected mice [1]: improved the neutralizing antibodies | 1:10 (cell lesions from myocardial homogenate) ([2]; 10 mg/kg oral): + (: + 50%); also recorded: ++ (++ 100%) | Lesions rate % ([2]; 10 mg/kg oral): 50% (4×) and 100% | Average disease rate % ([2]; 10 mg/kg oral): 60% | Reduce lesions ([2]; 10 mg/kg oral): 33.33% | 1:10 (cell lesions from myocardial homogenate) ([2]; 50 mg/kg oral): ± (plus or minus: 0%); also recorded: + (: + 50%); also recorded: ++ (++ 100%) | Lesions rate % ([2]; 50 mg/kg oral): 25% and 50% (3×) and 100% | Average disease rate % ([2]; 50 mg/kg oral): 55% | Reduce lesions ([2]; 50 mg/kg oral): 38.89% | 1:10 (cell lesions from myocardial homogenate) ([2]; 100 mg/kg oral): ± (plus or minus: 0%); also recorded: + (: + 50%) | Lesions rate % ([2]; 100 mg/kg oral): 25% (2×) and 50% (3×) | Average disease rate % ([2]; 100 mg/kg oral): 40% | Reduce lesions ([2]; 100 mg/kg oral): 55.56% | effect on the coxsackie virus replication in the myocardial ([2]; CVB3-infected mice, oral treatment): inhibitory effect | Survival time M ([3]; 10 mg/kg oral once per day for 7 days): 8.9 days | prolonged survival time, extended percentage ([3]; 10 mg/kg oral): 21.92% | Survival time M ([3]; 50 mg/kg oral once per day for 7 days): 9 days | prolonged survival time, extended percentage ([3]; 50 mg/kg oral): 23.29% | Survival time M ([3]; 100 mg/kg oral once per day for 7 days): 9.4 days | prolonged survival time, extended percentage ([3]; 100 mg/kg oral): 28.77% | activity against coxsackie virus ([3]; summary statement, concentration-response correlation): has activity against coxsackie virus | curative effect on EAM in mice (mouse EAM model; 100 mg/kg/d intragastric administration): has certain curative effect | pathology (HE staining), efficacy (mouse EAM model; intragastric administration at 100 mg/kg·d^−1): worked the best | Cardiac morphology, effect on the EAM model (mouse EAM model; intragastric administration, 21 days, FIG. 3): has curative effect on the EAM model | Cardiac morphology, efficacy (mouse EAM model; intraperitoneal injection 20 mg/kg/d^−1, 21 days): worked the best efficacy | heart and body weight ratio (HW/BW) (mouse EAM model; intraperitoneal injection 20 mg/kg/d^−1, 21 days, FIG. 1): changed HW/BW significantly | pathology (HE staining), efficacy (mouse EAM model; intraperitoneal injection at 20 mg/kg·d^−1): worked the best | occurrence of the EAM in mice (mouse EAM model; intraperitoneal injection of 20 mg/kg/d): prevents the occurrence of the EAM in mice | most effective dose (cardiac morphology) (mouse EAM model; intraperitoneal injection, 21 days): 20 mg/kg/d^−1 | Cardiac morphology, degree and extent of the lesion vs model and solvent control groups (mouse EAM model; intraperitoneal injection, various dosages (2.5-20 mg/kg/d^−1), 21 days, FIG. 2): various degrees of improvement | pathology (HE staining), myocardial inflammation (mouse EAM model; various dosages, vs model and solvent control groups, FIG. 5): had curative effect on myocardial inflammation in mice | Live body weight M ± SD (CVB3-Infected Mice; 10 mg/Kg, 4 days): 15.23 ± 1.01 | Live body weight M ± SD (CVB3-Infected Mice; 10 mg/Kg, 8 days): 15.59 ± 0.89 | Live body weight M ± SD (CVB3-Infected Mice; 10 mg/Kg, 14 days): 17.92 ± 1.10 | Live body weight M ± SD (CVB3-Infected Mice; 10 mg/Kg, Before): 14.59 ± 0.71 | Live body weight M ± SD (CVB3-Infected Mice; 50 mg/Kg, 4 days): 15.14 ± 0.68 | Live body weight M ± SD (CVB3-Infected Mice; 50 mg/Kg, 8 days): 16.03 ± 0.96 | Live body weight M ± SD (CVB3-Infected Mice; 50 mg/Kg, 14 days): 18.33 ± 0.80 | Live body weight M ± SD (CVB3-Infected Mice; 50 mg/Kg, Before): 14.58 ± 0.49 | Live body weight M ± SD (CVB3-Infected Mice; 100 mg/Kg, 4 days): 15.13 ± 0.88 | Live body weight M ± SD (CVB3-Infected Mice; 100 mg/Kg, 8 days): 16.1 ± 1.05 | Live body weight M ± SD (CVB3-Infected Mice; 100 mg/Kg, 14 days): 18.21 ± 0.86 | Live body weight M ± SD (CVB3-Infected Mice; 100 mg/Kg, Before): 14.57 ± 0.55
